From patent US6479435B1, “Diaryl ethers and processes for their preparation and herbicidal and desiccant compositions containing them” (ISK Americas Incorporated, priority 1997, dated 2002)

Legend:
Type in all cases: in vivo
[1] = tested on: soybean (Glycine max L., var. Pella 86, SOY); assay: Pre-emerge greenhouse test, crop damage rating; conditions: 1000 g ai/ha, 14 days after application, rating scale 0-100
From the text: (§1) A standard greenhouse herbicide activity screening system was used to evaluate the herbicidal efficacy and crop safety of these test compounds. Six broadleaf weed species including redroot pigweed (Amaranthus retroflexus, AMARE), velvetleaf (Abutilon theophrasti, ABUTH), sicklepod (Cassia obtusifolia, CASOB), ivyleaf morningglory (Ipomoea hederacea, IPOHE), lambsquarters (Chenopodium album, CHEAL) and common ragweed (Ambrosia artemisiifolia L., AMBEL) were used as test species. Four grass weed species including green foxtail (Setaria viridis, SETVI), barnyardgrass (Echinochloa crusgalli, ECHCG), Johnsongrass (Sorghum halepense, SORHA), and large crabgrass (Digitaria sanguinalis, DIGSA) were also used. In addition, three crop species, field corn (Zea mays L., var. Dekalb 535, CORN), soybean (Glycine max L., var. Pella 86, SOY), and upland rice (Oryza sp., var.Tebonnet, RICE) were included.
(§2) All plants were grown in 10 cm square plastic pots which were filled with a sandy loam soil mix. For preemerge tests, seeds were planted one day prior to application of the test compounds. Immediately after application, test units of the pre-emerge applications were watered at the soil surface to incorporate the test materials. Subsequently, these test units were bottom-watered.
(§3) All test compounds were dissolved in acetone and applied to the test units in a volume of 187 l/ha. Test materials were applied at rates ranging from 125 g ai/ha to 1000 g ai/ha using a track sprayer equipped with a TJ8001E even flow flat fan spray nozzle. Plants were arranged on a shelf so that the top of the canopy (post-emerge) or top of the soil surface (pre-emerge) was 40-45 cm below the nozzle. Pressurized air was used to force the test solution through the nozzle as it was mechanically advanced (via electrically driven chain drive) over the top of all test plants/pots. This application simulates a typical commercial field herbicide application.
(§4) At 14 days after application of the test materials, phytotoxicity ratings were recorded. A rating scale of 0-100 was used as previously described in Research Methods in Weed Science, 2nd edition, B. Truelove, Ed., Southern Weed Science Society, Auburn University, Auburn, Ala., 1977. Briefly, “0” corresponds to no damage and “100” corresponds to complete death of all plants in the test unit. This scale was used both to determine efficacy against weed species and damage to crop species. Herbicide activity data for various compounds of this invention, which are shown by compound number in Tables 1-9, are shown in Tables 13 and 14.

[2] = tested on: field corn (Zea mays L., var. Dekalb 535, CORN); assay: Pre-emerge greenhouse test, crop damage rating; conditions: 1000 g ai/ha, 14 days after application, rating scale 0-100
From the text: as §1, §2, §3, §4

[3] = tested on: upland rice (Oryza sp., var.Tebonnet, RICE); assay: Pre-emerge greenhouse test, crop damage rating; conditions: 1000 g ai/ha, 14 days after application, rating scale 0-100
From the text: as §1, §2, §3, §4

[4] = tested on: field corn (Zea mays L., var. Dekalb 535, CORN); assay: Post-emerge greenhouse test, crop damage rating; conditions: 1000 g al/ha, 14 days after application
From the text: as §1, §3
(§5) In the post-emerge test, a commercial non-ionic surfactant was also included (0.25% v/v) to enhance wetting of the leaf surfaces Qf target plants at rates ranging from 63 g ai/ha to 1000 g ai/ha. For post-emerge tests, seeds were planted 8-21 days prior to the test to allow emergence and good foliage development prior to application of the test substances. At the time of the post-emerge application, plants of all species were usually at the 2-3 leaf stage of development. Post-emerge test units were always bottom-watered.
as §4

[5] = tested on: upland rice (Oryza sp., var.Tebonnet, RICE); assay: Post-emerge greenhouse test, crop damage rating; conditions: 1000 g al/ha, 14 days after application
From the text: as §1, §3, §5, §4

[6] = tested on: soybean (Glycine max L., var. Pella 86, SOY); assay: Post-emerge greenhouse test, crop damage rating; conditions: 1000 g al/ha, 14 days after application
From the text: as §1, §3, §5, §4

[7] = tested on: ivyleaf morningglory (Ipomoea hederacea, IPOHE); assay: Post-emerge greenhouse herbicide test, phytotoxicity rating; conditions: 1000 g al/ha, 14 days after application
From the text: as §1, §3, §5, §4

[8] = tested on: lambsquarters (Chenopodium album, CHEAL); assay: as above; conditions: 1000 g al/ha, 14 days after application
From the text: as §1, §3, §5, §4

[9] = tested on: velvetleaf (Abutilon theophrasti, ABUTH); assay: as above; conditions: 1000 g al/ha, 14 days after application
From the text: as §1, §3, §5, §4

[10] = tested on: barnyardgrass (Echinochloa crusgalli, ECHCG); assay: as above; conditions: 1000 g al/ha, 14 days after application
From the text: as §1, §3, §5, §4

[11] = tested on: Johnsongrass (Sorghum halepense, SORHA); assay: as above; conditions: 1000 g al/ha, 14 days after application
From the text: as §1, §3, §5, §4

[12] = tested on: green foxtail (Setaria viridis, SETVI); assay: as above; conditions: 1000 g al/ha, 14 days after application
From the text: as §1, §3, §5, §4

[13] = tested on: sicklepod (Cassia obtusifolia, CASOB); assay: as above; conditions: 1000 g al/ha, 14 days after application
From the text: as §1, §3, §5, §4

[14] = tested on: redroot pigweed (Amaranthus retroflexus, AMARE); assay: as above; conditions: 1000 g al/ha, 14 days after application
From the text: as §1, §3, §5, §4

[15] = tested on: large crabgrass (Digitaria sanguinalis, DIGSA); assay: as above; conditions: 1000 g al/ha, 14 days after application
From the text: as §1, §3, §5, §4

[16] = tested on: ivyleaf morningglory (Ipomoea hederacea, IPOHE); assay: Pre-emerge greenhouse herbicide test, phytotoxicity rating; conditions: 1000 g ai/ha, 14 days after application, rating scale 0-100
From the text: as §1, §2, §3, §4

[17] = tested on: lambsquarters (Chenopodium album, CHEAL); assay: as above; conditions: 1000 g ai/ha, 14 days after application, rating scale 0-100
From the text: as §1, §2, §3, §4

[18] = tested on: velvetleaf (Abutilon theophrasti, ABUTH); assay: as above; conditions: 1000 g ai/ha, 14 days after application, rating scale 0-100
From the text: as §1, §2, §3, §4

[19] = tested on: barnyardgrass (Echinochloa crusgalli, ECHCG); assay: as above; conditions: 1000 g ai/ha, 14 days after application, rating scale 0-100
From the text: as §1, §2, §3, §4

[20] = tested on: Johnsongrass (Sorghum halepense, SORHA); assay: as above; conditions: 1000 g ai/ha, 14 days after application, rating scale 0-100
From the text: as §1, §2, §3, §4

[21] = tested on: green foxtail (Setaria viridis, SETVI); assay: as above; conditions: 1000 g ai/ha, 14 days after application, rating scale 0-100
From the text: as §1, §2, §3, §4

[22] = tested on: sicklepod (Cassia obtusifolia, CASOB); assay: as above; conditions: 1000 g ai/ha, 14 days after application, rating scale 0-100
From the text: as §1, §2, §3, §4

[23] = tested on: redroot pigweed (Amaranthus retroflexus, AMARE); assay: as above; conditions: 1000 g ai/ha, 14 days after application, rating scale 0-100
From the text: as §1, §2, §3, §4

[24] = tested on: large crabgrass (Digitaria sanguinalis, DIGSA); assay: as above; conditions: 1000 g ai/ha, 14 days after application, rating scale 0-100
From the text: as §1, §2, §3, §4

| Structure (SMILES) | crop damage rating SOY [1] | crop damage rating CORN [2] | crop damage rating RICE [3] | CORN crop damage rating (0-100) [4] | RICE crop damage rating (0-100) [5] | SOY crop damage rating (0-100) [6] | IPOHE phytotoxicity rating (0-100) [7] | CHEAL phytotoxicity rating (0-100) [8] | ABUTH phytotoxicity rating (0-100) [9] | ECHCG phytotoxicity rating (0-100) [10] | SORHA phytotoxicity rating (0-100) [11] | SETVI phytotoxicity rating (0-100) [12] | CASOB phytotoxicity rating (0-100) [13] | AMARE phytotoxicity rating (0-100) [14] | DIGSA phytotoxicity rating (0-100) [15] | phytotoxicity rating IPOHE [16] | phytotoxicity rating CHEAL [17] | phytotoxicity rating ABUTH [18] | phytotoxicity rating ECHCG [19] | phytotoxicity rating SORHA [20] | further results |
| --- | --- | --- | --- | --- | --- | --- | --- | --- | --- | --- | --- | --- | --- | --- | --- | --- | --- | --- | --- | --- | --- |
| O=c1cc2n(c(=O)n1-c1cc(Oc3ccccc3[N+](=O)[O-])c(Cl)cc1F)CCC2 [Compound 5-1] | 55 | 5 | 70 | 0 | 10 | 40 | 90 | 80 | 100 | 30 | 10 | 20 | 10 | 30 | 0 | 70 | 100 | 100 | 95 | 90 | phytotoxicity rating SETVI [21]: 99; phytotoxicity rating CASOB [22]: 40; phytotoxicity rating AMARE [23]: 99; phytotoxicity rating DIGSA [24]: 100 |
| O=c1cc2n(c(=O)n1-c1cc(Oc3ccc([N+](=O)[O-])cc3)c(Cl)cc1F)CCC2 [Compound 5-2] | 10 | 0 | 50 | 0 | 10 | 15 | 40 | 40 | 70 | 0 | 0 | 10 | 0 | 20 | 0 | 50 | 100 | 100 | 50 | 80 | phytotoxicity rating SETVI [21]: 90; phytotoxicity rating CASOB [22]: 0; phytotoxicity rating AMARE [23]: 40; phytotoxicity rating DIGSA [24]: 70 |
| Nc1ccc(Oc2cc(-n3c(=O)cc4n(c3=O)CCC4)c(F)cc2Cl)cc1 [Compound 5-3] | 40 | 0 | 20 | 0 | 0 | 0 | 0 | 0 | 0 | 0 | 0 | 0 | 0 | 0 | 0 | 0 | 0 | 99 | 0 | 40 | phytotoxicity rating SETVI [21]: 20; phytotoxicity rating CASOB [22]: 10; phytotoxicity rating AMARE [23]: 100; phytotoxicity rating DIGSA [24]: 70 |
